Earlier results in patent publication US11019825B2, “Product” (priority 2015, dated 2021).

Key:
canola seedlings = details: low concentrations

## Harzianic acid
Pythium irregulare
  antibiotic activity in vitro: antibiotic activity
Sclerotinia sclerotiorum
  antibiotic activity in vitro: antibiotic activity
Rhizoctonia solani
  antibiotic activity in vitro: antibiotic activity
Canola seedlings
  plant growth promotion effect: plant growth promotion effect
